Where two headings read alike, the source gives them in different places.
Legend:
[1] = LC-MS/MS method validation: stability of rofecoxib; type: physicochemical, human
Excerpt: In order to support clinical studies with TRM-201 (rofecoxib), a method was developed for the determination of rofecoxib in human plasma by LC-MS/MS. This method was validated in accordance with the FDA Good Laboratory Practice Regulations (GLP) as set forth in Title 21 of the U S. Code of Federal Regulations Part 58 as well as FDA Guidance for Industry: Bioanalytical Method Validation, May 2018.

Solubility of rofecoxib = type: physicochemical
Experimental: In some embodiments, rofecoxib is a white to off-white to light yellow powder. […] The 50 mg tablets may also contain red ferric oxide. […] Added as preservatives are sodium methylparaben about 0.13% and sodium propylparaben about 0.02%.
https://www.ccdc.cam.ac.uk/structures/Search?Compound=Rofecoxib&DatabaseToSearch=Published). […] Rofecoxib has no ionizable moieties and cannot form salts; the solubility of rofecoxib cannot be increased by changing pH. Therefore, in some embodiments, rofecoxib is micronized in the final step of the manufacturing process in order to increase dissolution rate. Description of Manufacturing Process and Process Controls for Rofecoxib Tablets

[2] = TRM-201-PK-101 single-dose pharmacokinetic study, 25 mg, fasted healthy subjects; type: in vivo, human; settings: for Cmax / AUC(0-inf) / AUC: human, plasma, oral
Experimental: A Single-Dose, Open-Label, Phase 1, Adaptive Pharmacokinetic Study of TRM-201 (Rofecoxib) 25 mg Administered to Healthy Subjects in a Fasting State, with Comparison to Historical Pharmacokinetic Parameters of Previously Marketed Rofecoxib and a Food-Effect Substudy (“TRM-201-PK-101” or “101 PK Study”)
This is a single-center, open-label, adaptive PK study of TRM-201 consisting of a MAIN study with a PILOT portion conducted under a fasted condition, and a two-period crossover, FOOD-EFFECT sub study under both fasted and fed conditions. The PILOT portion of the study (21 subjects) will include a single dose of TRM-201 in a single group to assess the PK of TRM-201 in healthy volunteers under fasted conditions. Following completion of the PILOT portion and the decision to move forward, an additional 16 subjects will be enrolled in the MAIN study and an additional 16 subjects will be enrolled in the FOOD-EFFECT sub study. The MAIN study will include a single dose of TRM-201 to assess the PK of TRM-201 in healthy volunteers under fasted conditions. The FOOD-EFFECT sub study is a single-dose, two-period crossover study. A single dose of TRM-201 will be given on Day 1 of each dosing period to assess the PK of TRM-201 in healthy volunteers under both fasted and fed conditions. Subjects will be randomized 1:1 into the two sequences fasted followed by fed, and fed followed by fasted.
After Check-In, subjects will fast overnight for at least 10 hours before study drug administration. While fasting, subjects will have nothing to eat and only water to drink. Water will be permitted as desired, except for the period between 1 hour before and 1 hour after study drug dosing (excepting as permitted for dosing). After the 2-hour PK blood sample, subjects will be allowed one 250-mL cup of clear apple juice. After the 4-hour PK blood sample, subjects will be served a light lunch. Following the light lunch, subjects should receive standardized meals according to the clinic's standard procedures that are scheduled at consistent times and at least 15 minutes before or 15 minutes after PK sampling time points. Blood will be withdrawn for PK analysis at predefined time points as defined in Table 8. The last time point will be 120 hours after dosing with study drug. After the 120-hour PK sample, the EOS procedures will be completed, and subjects will be discharged from the clinic.
This is an open-label PK study. Each subject is scheduled to receive a single 25-mg dose of TRM-201 in the PILOT portion and the MAIN study, and a single 25-mg dose of TRM-201 twice in the FOOD-EFFECT sub study. TRM-201 manufactured and formulated as Batch 5 (B18090) and Batch 6 (B18091), above, will be used in the study.
The time points and windows for PK blood sampling for the PILOT portion, Main study and FOOD-EFFECT substudy are presented in Table 14 below. For each sample, approximately 3 mL of blood will be drawn. The samples may be obtained by a straight stick or via an in-dwelling intravenous (IV) catheter in a forearm vein. Additional details for the collection, processing, storage, and shipping of PK samples will be provided in the study manual.
Pharmacokinetic samples will be analyzed using a validated assay for rofecoxib in human plasma. Assay results and validation details will be provided in a separate bioanalytical report.
The following PK parameters for rofecoxib will be calculated as primary endpoints using standard noncompartmental methods for both the PILOT portion and MAIN study, and the FOOD-EFFECT sub study: AUC0-∞ and Cmax. Secondary endpoints include Tmax, and t1/2. Additional PK parameters (e.g., CL/F, and Vd/F) will also be calculated using standard noncompartmental methods.
The PK parameters of rofecoxib will be analyzed based on the actual sampling times. All parameters will be calculated using the Phoenix® WinNonlin® version 6.4 or higher (Certara USA Inc., Princeton, N.J.) or SAS® version 9.3 or higher (SAS Institute Inc., Cary, N.C.). […]

COX-2 = COX-2 (Homo sapiens, UniProt P35354); settings: at therapeutic concentrations; cited from earlier work
[3] = cited from earlier work
[4] = 25 mg, versus Schwartz data, FIG. 28

Chain of COX-2 (P35354 18-604): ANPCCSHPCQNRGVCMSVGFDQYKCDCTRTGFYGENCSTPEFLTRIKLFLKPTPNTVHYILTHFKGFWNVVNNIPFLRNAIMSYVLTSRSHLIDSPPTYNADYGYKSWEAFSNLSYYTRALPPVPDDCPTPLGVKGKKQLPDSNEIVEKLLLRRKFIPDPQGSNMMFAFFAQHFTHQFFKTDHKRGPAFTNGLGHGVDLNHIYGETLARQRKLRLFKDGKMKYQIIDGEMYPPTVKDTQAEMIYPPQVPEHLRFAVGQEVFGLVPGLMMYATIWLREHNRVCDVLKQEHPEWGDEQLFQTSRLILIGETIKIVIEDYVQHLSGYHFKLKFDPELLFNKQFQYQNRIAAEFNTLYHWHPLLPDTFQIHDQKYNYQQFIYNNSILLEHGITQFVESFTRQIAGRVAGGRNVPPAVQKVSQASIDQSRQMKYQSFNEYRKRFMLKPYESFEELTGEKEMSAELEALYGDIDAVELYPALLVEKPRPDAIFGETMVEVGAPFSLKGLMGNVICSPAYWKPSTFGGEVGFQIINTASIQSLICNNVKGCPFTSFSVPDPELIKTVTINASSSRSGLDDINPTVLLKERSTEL

CS(=O)(=O)c1ccc(C2=C(c3ccccc3)C(=O)OC2)cc1 [TRM-201, 4-[4-(methylsulfonyl)phenyl]-3-phenyl-2(5H)-furanone]
Processed Sample Stability ([1]; at 4° C.): 174 Hours at 4 °C | Stock Solution Stability in Dimethyl Sulfoxide ([1]; at Ambient Temperature): 17 Hours at Ambient Temperature | Benchtop Stability in Plasma ([1]; at Ambient Temperature, human plasma): 26 Hours at Ambient Temperature | Stock Solution Stability in Dimethyl Sulfoxide ([1]; at −20° C.): 202 Days at −20 °C | Freeze/Thaw Stability in Plasma ([1]; at −20° C. and −70° C.): 5 Cycles at −20 °C and −70 °C | Long-term Storage Stability in Plasma ([1]; at −20° C. and −70° C.): 184 Days at −20 °C and −70 °C | Benchtop Stability in Whole Blood ([1]; in an Ice Bath when Centrifuged at 4° C. or Ambient Temperature): 2 Hours in an Ice Bath when | solubility (Solubility of rofecoxib; acetone): sparingly soluble | solubility (Solubility of rofecoxib; ethanol): very slightly soluble | solubility (Solubility of rofecoxib; isopropyl acetate): slightly soluble | solubility (Solubility of rofecoxib; methanol): slightly soluble | solubility (Solubility of rofecoxib; octanol): practically insoluble | solubility (Solubility of rofecoxib; water, listed as Rofecoxib): practically insoluble | solubility (Solubility of rofecoxib; water, listed as rofecoxib): insoluble | solubility (Solubility of rofecoxib; water, read-out: solubility in water): < 100 µg/mL | AUC0-∞ compared to historical data [2, 4]: larger | Cmax compared to historical data [2, 4]: higher | Cmax ([2]; 17.5 mg, 17.5 mg formulation, estimated from 101 data, read-out: estimated Cmax): ~238 ng/mL | AUC(0-inf) ([2]; 17.5 mg, extrapolated from 25 mg assuming dose linearity, read-out: extrapolated AUC0-∞): 3250 ng·h/mL | Cmax ([2]; 17.5 mg, extrapolated from 25 mg assuming dose linearity, read-out: extrapolated Cmax): 223 ng/mL | Cmax ([2]; 20 mg, 20 mg formulation, estimated from 101 data, read-out: estimated Cmax): ~266 ng/mL | AUC(0-inf) ([2]; 20 mg, extrapolated from 25 mg assuming dose linearity, read-out: extrapolated AUC0-∞): 3710 ng·h/mL | Cmax ([2]; 20 mg, extrapolated from 25 mg assuming dose linearity, read-out: extrapolated Cmax): 254 ng/mL | Cmax ([2]; 25 mg, 25 mg formulation in TRM-201-PK-101, as stated in Example 6, read-out: Geometric mean Cmax): 320 ng/mL | AUC(0-inf) ([2]; 25 mg, fasted, FIG. 25, read-out: geometric mean AUC0-∞): 4640 ng·h/mL | Cmax ([2]; 25 mg, fasted, FIG. 25, read-out: geometric mean Cmax): 318 ng/mL | AUC ([2]; 17.5 mg formulation, estimated from 101 data, read-out: estimated AUC): ~3280 ng·h/mL | AUC ([2]; 20 mg formulation, estimated from 101 data, read-out: estimated AUC): ~3740 ng·h/mL | AUC ([2]; 25 mg formulation in TRM-201-PK-101, as stated in Example 6, read-out: Geometric mean AUC): 4680 ng·h/mL | inhibition of COX-2 (COX-2): inhibits COX-2 | incidence of gastrointestinal (GI) ulcers visualized at endoscopy compared to certain non-selective NSAIDs ([3]; FDA 2005): reduction | risk of serious GI bleeding compared to a non-selective NSAID (naproxen) ([3]; following chronic use, FDA 2005): reduce the risk | risk of serious adverse cardiovascular events compared to placebo ([3]; long-term controlled clinical trial / FDA 2005): increased risk

— US10945992B1, “Dosage forms of rofecoxib and related methods” (Tremeau Pharmaceuticals, Inc., priority 2019, dated 2021)
